Assay results from PubChem BioAssay (NCI).
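Cells were grown in 96-well plates and exposed to each compound for 48 hours at five concentrations; endpoints were interpolated linearly between bracketing concentrations, or set to the highest concentration if not reached. GI50 = concentration required for 50% inhibition of growth. TGI is the concentration that stops growth completely.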

Columns and labels:
Test in all cases: growth of human tumour cells (NCI), 48 h
[1] = test system: A549 NSCLC
[2] = test system: SK-MEL-28 melanoma
[3] = test system: SF-268 CNS
[4] = test system: OVCAR-3 ovarian
[5] = test system: SR leukemia
[6] = test system: HT29 colon
[7] = test system: SK-MEL-5 melanoma
[8] = test system: CAKI-1 renal
[9] = test system: NCI/ADR-RES ovarian
[10] = test system: PC-3 prostate

CCCCCCCCCC/C=C/C=O
TGI [1]: > 100 µM | TGI [2]: > 100 µM | TGI [3]: > 100 µM | TGI [4]: > 100 µM | TGI [5]: > 100 µM | TGI [6]: > 100 µM | TGI [7]: > 100 µM

CN1CCN(c2ccc3[nH]c(C4=C(O)C(=O)[C@@H]5C(=C4O)N=C(CO)N5C)nc3n2)CC1
TGI [1]: > 100 µM | TGI [2]: > 100 µM | TGI [3]: > 100 µM | TGI [8]: > 100 µM | TGI [4]: > 100 µM | TGI [6]: > 100 µM | TGI [9]: > 100 µM | TGI [10]: > 100 µM

Cc1cc(C)c(NC(=O)/C=C/c2ccccc2)c(C)c1
TGI [1]: > 100 µM | TGI [2]: > 100 µM | TGI [3]: > 100 µM | TGI [4]: > 100 µM | TGI [5]: > 100 µM | TGI [6]: > 100 µM | TGI [9]: > 100 µM | TGI [10]: > 100 µM

C=CC(=O)NCNC(=O)C=C
TGI [1]: > 100 µM | TGI [2]: > 100 µM | TGI [3]: > 100 µM | TGI [8]: > 100 µM | TGI [4]: > 100 µM | TGI [5]: > 100 µM | TGI [6]: > 100 µM | TGI [7]: > 100 µM

O=C1/C(=C/c2ccc(Cl)cc2)N=C(c2ccccc2)N1/N=C/c1ccccc1O
TGI [1]: 81.6 µM | TGI [2]: 62.9 µM | TGI [3]: 47.1 µM | TGI [8]: 22.3 µM | TGI [4]: 36.3 µM | TGI [6]: > 100 µM | TGI [9]: 97.6 µM | TGI [7]: > 100 µM | TGI [10]: 28 µM

CCP(=O)(CC)C(Cl)(Cl)C(O)C(Cl)(Cl)Cl (stereo unspecified)
TGI [1]: > 100 µM | TGI [2]: > 100 µM | TGI [8]: > 100 µM | TGI [4]: > 100 µM | TGI [5]: > 100 µM | TGI [6]: > 100 µM | TGI [9]: > 100 µM | TGI [7]: > 100 µM | TGI [10]: > 100 µM

C#C[C@]1(O)[C@@H](CO)O[C@@H](n2ccc(N)nc2=O)[C@@H]1O
TGI [1]: > 100 µM | TGI [2]: 4.27 µM | TGI [3]: 6.04 µM | TGI [8]: 0.122 µM | TGI [4]: > 20.8 µM | TGI [7]: 0.371 µM | TGI [10]: 0.762 µM

NCCCn1c2c(c3ccc([N+](=O)[O-])cc3c1=O)C(=O)c1cc(F)ccc1-2
GI50 [2]: 0.229 µM | TGI [2]: 1.54 µM | GI50 [8]: 0.0498 µM | TGI [8]: 0.266 µM | GI50 [4]: 0.031 µM | TGI [4]: 0.152 µM | GI50 [5]: < 0.01 µM | TGI [5]: 0.0205 µM | GI50 [6]: < 0.0153 µM | TGI [6]: 0.515 µM | GI50 [9]: 0.0412 µM | TGI [9]: 1.2 µM | GI50 [7]: 0.0603 µM | TGI [7]: 0.199 µM | GI50 [10]: 0.0398 µM | TGI [10]: 1.63 µM

COc1cc(/C=C/C(=O)c2ccc(F)cc2)ccc1OCCCCCOc1cc2c(cc1OC)C(=O)N1CCCC1C=N2 (stereo unspecified)
GI50 [2]: 0.194 µM | TGI [2]: 0.473 µM | GI50 [3]: 0.0177 µM | TGI [3]: 0.0613 µM | GI50 [5]: < 0.01 µM | TGI [5]: < 0.0113 µM | GI50 [6]: < 0.016 µM | TGI [6]: 1.48 µM | GI50 [9]: 0.239 µM | TGI [9]: 2.47 µM | GI50 [7]: 0.0896 µM | TGI [7]: 0.23 µM | GI50 [10]: 0.0208 µM | TGI [10]: 0.215 µM

NC(Cc1ccccc1)c1nn[nH]n1 (stereo unspecified)
TGI [1]: > 100 µM | TGI [2]: > 100 µM | TGI [3]: > 100 µM | TGI [8]: > 100 µM | TGI [4]: > 100 µM | TGI [5]: > 100 µM | TGI [6]: > 100 µM | TGI [9]: > 100 µM | TGI [7]: > 100 µM | TGI [10]: > 100 µM

CC(C)OC(=O)NNc1cccc(Cl)c1
TGI [1]: > 100 µM | TGI [2]: > 100 µM | TGI [3]: > 100 µM | TGI [8]: > 100 µM | TGI [4]: > 100 µM | TGI [5]: > 100 µM | TGI [6]: > 100 µM | TGI [9]: > 100 µM | TGI [7]: > 100 µM | TGI [10]: > 100 µM
